Our source for the TGI values is PubChem BioAssay (NCI).

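Test compounds were applied to cells in 96-well plates for 48 hours at 5 doses. Definition used: TGI = concentration required for complete inhibition of growth.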

Holding throughout (test): NCI anticancer screen, dose series, 48 h
Test [1] relates to 786-0 renal.
The test system of test [2] is CAKI-1 renal.
For test [3], the system named is CCRF-CEM leukemia.
In test [4] the test system is LOX IMVI melanoma.
Test [5] has as its system MCF7 breast.
For test [6], the system named is OVCAR-3 ovarian.
Test [7] relates to PC-3 prostate.
Test [8] has as its system SF-268 CNS.
Test [9] has as its system SK-OV-3 ovarian.
Test [10] deals with SR leukemia.
In test [11] the test system is T-47D breast.
The test system of test [12] is TK-10 renal.
Test [13] relates to UO-31 renal.

Regarding `COC(=O)/C=C(\CC(=O)OC)n1nnnc1[C@@H]1C[C@H](COC(c2ccccc2)(c2ccccc2)c2ccccc2)[C@H]2OC(C)(C)O[C@H]21`, the TGI in test [1], in test [2], in test [3], in test [4], in test [5] and in [6] was > 100 µM throughout. The TGI in [7], in [8], in test [9], in test [10], in [11] and in test [12] was > 100 µM each time. Moreover, the TGI in test [13] was > 100 µM.
As to `CCOC(=O)C(C(=O)OCC)=C1NC2(c3ccccc3Nc3ccccc32)C(C#N)S1` (stereo not drawn), the TGI in test [1] is 23.8 µM; in test [2], 53.7 µM; in test [3], > 100 µM; in [4], 26.5 µM; in test [5], 13.3 µM; in test [6], 4.78 µM. In addition, the TGI in test [7] turned out to be 16.8 µM; in test [8], 39 µM; in test [9], 53.8 µM; in [10], 6.81 µM; in test [11], 25.5 µM; in [12] it was 38.6 µM. Besides, the TGI in test [13] was determined as 25.3 µM.
In the case of `CCC1OC2C(CC=C(C)C)=C3OC(C)(O)C(C)(CC)C(OC(C)=O)C3=C3OC(=O)C=C1C32` (stereo not drawn), the TGI is > 100 µM in test [1]; 62.1 µM in test [2]; > 100 µM in test [3]; 48.8 µM in test [4]; > 100 µM in [5]; > 100 µM in [6]. Moreover, the TGI in test [7], in [8], in [9], in [10], in [11] and in test [12] was > 100 µM in each case. Further, the TGI in [13] turned out to be 62.2 µM.
Consider `CC1=NN(c2nc(N)nc(/C(C#N)=C\c3csc([N+](=O)[O-])c3)n2)C(C)(C)C1`, for which the TGI in test [1] was 32.2 µM; in test [2] it was > 100 µM; in [3] it was > 100 µM; in [4], > 100 µM; in [5], > 100 µM; in test [6] it was 78.9 µM. Further, the TGI was 41.5 µM in [7]; 53.4 µM in [8]; > 100 µM in [9]; > 100 µM in [10]; 56.9 µM in test [11]; 95.5 µM in test [12]. The TGI in test [13] was > 100 µM.
Regarding `COc1cc2c(c(O)c1OC)C(=O)[C@@H]1CCC(=O)N1C2`, the TGI in test [1], in test [2], in test [3], in test [4], in [5] and in [6] was > 100 µM in each case. The TGI in test [7], in test [8], in test [9], in test [10], in test [11] and in test [12] was > 100 µM in each case. Further, the TGI in test [13] was > 100 µM.
`CC(C)=CCN1CC(C)C(=O)Nc2ccccc21` (stereo not drawn): the TGI in test [1], in test [2], in test [3], in [4], in [5] and in [6] was > 100 µM each time. In addition, the TGI in test [7], in test [8], in test [9], in [10], in [11] and in test [12] was > 100 µM in each case. In addition, in [13], the TGI was > 100 µM.
Turning to `N[C@H](C(=O)O)[C@@H]1CC(Br)=NO1`, the TGI in test [1], in [2], in [3], in test [4], in test [5] and in test [6] was > 100 µM throughout. Further, the TGI in test [7], in [8], in [9], in [10], in test [11] and in test [12] was > 100 µM throughout. Further, the TGI in test [13] is > 100 µM.
Turning to `CCOC(=O)NNC(=O)NCc1cccc(CNC(=O)NNC(=O)OCC)c1`, the TGI in test [1], in [2], in test [3], in test [4], in [5] and in test [6] was > 100 µM each time. Also, the TGI in test [7], in test [8], in [9], in [10], in [11] and in [12] was > 100 µM in each case. Moreover, the TGI in [13] was > 100 µM.
Consider `C=C1CC(c2ccc(OCCCN3C(=O)c4ccccc4C3=O)cc2)OC1=O` (stereo not drawn), for which the TGI in test [1] was 5.23 µM; in test [2], 6.54 µM; in test [3], 4.56 µM; in test [4], 3.77 µM; in test [5], 6.46 µM; in test [6], 5.31 µM. The TGI in test [7] was 10.9 µM; in [8], 15.4 µM; in [9], 27.5 µM; in [10] it was 8.57 µM; in [11], > 34.7 µM; in test [12], 14.5 µM. The TGI in test [13] was determined as 7.81 µM.
Turning to `Nc1ncnc2oc(C3OC(COC(=O)c4ccccc4)C(OC(=O)c4ccccc4)C3OC(=O)c3ccccc3)nc12` (stereo not drawn), the TGI in test [1], in [2], in test [3], in test [4], in test [5] and in test [6] was > 100 µM throughout. In addition, the TGI in test [7], in test [8], in test [9], in test [10], in [11] and in test [12] was > 100 µM each time. For the same compound, in [13], the TGI was > 100 µM.
Take `O=C(c1ccccc1)N(C(=O)c1ccccc1)c1nc(SCc2ccccc2)ns1`: the TGI is 70.5 µM in test [1]; > 100 µM in test [2]; 65.3 µM in test [3]; 60.4 µM in test [4]; > 100 µM in test [5]; 59.4 µM in test [6]. Moreover, the TGI was 71 µM in test [7]; > 100 µM in test [8]; > 100 µM in test [9]; 57.9 µM in test [10]; > 100 µM in [11]; 84.5 µM in [12]. The same compound returned a TGI in test [13] of 23.7 µM.
